The values below come from US8247377B2, “Non-steroidal glucocorticoid inhibitors and their use in treating inflammation, allergy and auto-immune conditions” (Glaxo Group Limited, priority 2006, dated 2012).

Experiment [1] deals with NFκB. Description: NFκB agonist assay in A549 SPAP cells.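 For average maximum asymptote in the NFkB assay: maximum inhibition of the TNFα-induced NFκB-driven signal.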 It is filed as cell-based. As to conditions: Homo sapiens; for Emax: A549, A549 SPAP cells, >85% = full agonist, ≧20% = partial or full agonist, read-out: average maximum asymptote in the NFkB assay; for IC50: A549 SPAP cells, TNFα 3.2 ng/ml, read-out: pIC50 for the NFkB assay (converted). The text has this: Human lung carcinoma A549 cell line (ECACC No. 86012804) has been stably transfected in house with a plasmid containing an ELAM promoter sequence that has a NFκB response element within it. Stimulation of the cell line with TNFα results in intracellular signal transduction and ultimately translocation of NFκB into the nucleus. This activates the inserted DNA sequence resulting in transcription of the integrated SPAP gene, which is quantified using a colorimetric assay. […] The stably transfected cell line was grown as a monolayer in DMEM supplemented with FCS-HI (10%), Non-essential amino acids (1%), L-Glutamine (2 mM), Pen/Strep (1%) and Geneticin (50 mg/ml).
A 70% confluent T225 flask of A549 SPAP cells was harvested by centrifugation for 5 min at 200 g, resuspended in assay buffer (DMEM supplemented with 10% FCS 2×HI, 2 mM L-Glutamine, 1% Pen/Strep and Non essential amino acids) and diluted to 0.16×10^6/ml. 60 μl of cell solution was dispensed to each well of clear Nunc 384-well plates, containing compound at the required concentration. Plates were incubated for 1 h at 37° C., 95% humidity, 5% CO2 before 10 μl of TNFα was added at final concentration of 3.2 ng/ml and then returned to the cell incubator for 15 h. Plates were equilibrated to room temperature for 1 h prior to the addition of 25 μl of pNPP buffer (1M Diethanolamine pH 9.8, 0.5 mM MgCl2, 0.28M NaCl, 2 mg/ml pNPP) to each well of assay plates. The plates were covered to protect the reagents from light, and then incubated at room temperature for approximately 1 hour before reading them on an Ascent using a 405 nm single filter. Dose response curves were constructed from which pIC50 values were estimated.

The test system of experiment [2] is MMTV promoter. Description: MMTV agonist assay in A549 MMTV cells. It is filed as cell-based. As to conditions: Homo sapiens, A549, 6 h, >85% = full agonist, >20% and <85% = partial or efficacy selective agonist, read-out: average maximum asymptote in the MMTV agonist assay. The text has this: Human lung carcinoma A549 cell line (ECACC No. 86012804) has been stably transfected in house with a plasmid containing a renilla luciferase reporter with an MMTV promoter. Stimulation of the cell line with GR agonists results in intracellular signal transduction and ultimately translocation of GR into the nucleus. This activates the inserted DNA sequence resulting in transcription of the integrated luciferase gene, which is quantified using a light emission. The stably transfected cell line was grown as a monolayer in DMEM supplemented with FCS-HI (10%), Non-essential amino acids (1%), L-Glutamine (2 mM), Pen/Strep (1%) and Geneticin (50 mg/ml).
A 90% confluent T175 flask of A549 MMTV cells was harvested by centrifugation for 5 min at 200 g, resuspended in assay buffer (DMEM supplemented with 10% FCS 2×HI, 2 mM Glutamax, Non essential amino acids and 25 mM HEPES) and diluted to 0.1×10^6/ml. 70 μl of cell solution was dispensed to each well of white Nunc 384-well plates, containing compound at the required concentration. Plates were incubated for 6 h at 37° C., 95% humidity, 5% CO2. Plates were equilibrated to room temperature for 1 h prior to the addition of 10 μl of Renilla substrate to each well of assay plates. The plates were covered to protect the reagents from light, and then incubated at room temperature for approximately 15 mins before reading them on a Viewlux. Dose response curves were constructed from which pEC50 and maximum asymptote values were estimated.

Experiment [3] deals with T1, glucocorticoid receptor (Homo sapiens, UniProt P04150).
T1 construct: a partially purified full length glucocorticoid receptor
T1 sequence (P04150 1-777): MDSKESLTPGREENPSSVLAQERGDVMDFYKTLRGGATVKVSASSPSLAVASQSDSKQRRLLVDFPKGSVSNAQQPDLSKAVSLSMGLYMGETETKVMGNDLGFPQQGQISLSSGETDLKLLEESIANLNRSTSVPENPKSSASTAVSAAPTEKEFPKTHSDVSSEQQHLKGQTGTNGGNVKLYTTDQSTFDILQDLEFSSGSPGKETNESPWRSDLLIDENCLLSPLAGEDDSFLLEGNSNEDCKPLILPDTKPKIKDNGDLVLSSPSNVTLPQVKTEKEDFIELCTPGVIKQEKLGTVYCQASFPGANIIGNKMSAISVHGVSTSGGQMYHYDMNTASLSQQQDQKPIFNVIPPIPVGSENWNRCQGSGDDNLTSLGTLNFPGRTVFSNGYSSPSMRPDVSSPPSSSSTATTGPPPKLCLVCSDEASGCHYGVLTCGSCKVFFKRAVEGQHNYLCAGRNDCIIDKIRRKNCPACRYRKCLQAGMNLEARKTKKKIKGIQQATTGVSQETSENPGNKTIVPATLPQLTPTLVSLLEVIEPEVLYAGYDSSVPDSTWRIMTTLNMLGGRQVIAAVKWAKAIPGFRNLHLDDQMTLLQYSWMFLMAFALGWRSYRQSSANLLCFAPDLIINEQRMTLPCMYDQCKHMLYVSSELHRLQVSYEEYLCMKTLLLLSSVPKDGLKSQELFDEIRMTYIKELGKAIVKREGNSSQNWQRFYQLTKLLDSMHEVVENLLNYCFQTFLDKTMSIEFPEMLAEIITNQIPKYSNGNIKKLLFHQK
Description: Glucocorticoid receptor binding assay (fluorescence polarisation). As to conditions: competition with Alexa 555 fluorescently-labelled dexamethasone derivative, full length glucocorticoid receptor; read-out: glucocorticoid binding pIC50 (converted). As to the method:
Compounds were solvated and diluted in DMSO, and transferred directly into assay plates. Fluorescent dexamethasone and a partially purified full length glucocorticoid receptor were added to the plates, together with buffer components to stabilise the GR protein and incubated at room temperature for 2 hrs in the dark. Binding of each compound was assessed by analysing the displacement of fluorescent ligand by measuring the decrease in fluorescence polarisation signal from the mixture. Dose response curves were constructed from which pIC50 values were estimated.

The target of experiment [4] is T2, progesterone receptor (Homo sapiens, UniProt P06401).
T2 construct: expressed in transfected cells; host or cells: CV-1 cells transduced with PRb-BacMam and MMTV-BacMam
T2 sequence (P06401 1-933): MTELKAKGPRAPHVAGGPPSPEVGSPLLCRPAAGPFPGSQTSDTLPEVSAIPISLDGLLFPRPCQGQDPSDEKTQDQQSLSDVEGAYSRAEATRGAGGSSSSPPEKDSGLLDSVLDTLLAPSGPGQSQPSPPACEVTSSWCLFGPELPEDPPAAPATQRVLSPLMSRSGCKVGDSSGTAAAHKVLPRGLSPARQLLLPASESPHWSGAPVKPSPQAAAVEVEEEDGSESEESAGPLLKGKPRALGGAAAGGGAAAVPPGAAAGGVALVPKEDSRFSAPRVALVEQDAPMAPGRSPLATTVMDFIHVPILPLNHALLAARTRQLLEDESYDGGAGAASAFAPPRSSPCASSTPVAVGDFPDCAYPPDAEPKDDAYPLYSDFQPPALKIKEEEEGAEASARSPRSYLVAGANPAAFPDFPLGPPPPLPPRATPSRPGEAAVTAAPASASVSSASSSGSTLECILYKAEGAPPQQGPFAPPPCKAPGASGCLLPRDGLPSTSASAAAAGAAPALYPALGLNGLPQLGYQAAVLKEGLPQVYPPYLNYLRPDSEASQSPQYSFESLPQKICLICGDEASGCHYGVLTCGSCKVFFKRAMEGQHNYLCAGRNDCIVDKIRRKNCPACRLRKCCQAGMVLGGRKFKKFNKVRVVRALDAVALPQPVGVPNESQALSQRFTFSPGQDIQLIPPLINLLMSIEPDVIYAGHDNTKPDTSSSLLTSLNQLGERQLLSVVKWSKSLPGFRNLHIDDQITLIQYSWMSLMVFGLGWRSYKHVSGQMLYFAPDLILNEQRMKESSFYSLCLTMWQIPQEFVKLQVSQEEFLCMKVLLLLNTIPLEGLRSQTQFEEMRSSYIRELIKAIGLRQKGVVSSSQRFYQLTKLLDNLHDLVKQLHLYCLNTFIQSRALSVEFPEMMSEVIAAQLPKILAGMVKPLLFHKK
Description: Assay for progesterone receptor activity (CV-1 cells, PRb-BacMam/MMTV-BacMam). The experiment is classed as cell-based. The following applies: CV-1 cells transduced with PRb-BacMam and MMTV-BacMam; read-out: pEC50 progesterone receptor activity (converted). As to the method:
A T225 flask of CV-1 cells at a density of 80% confluency was washed with PBS, detached from the flask using 0.25% trypsin and counted using a Sysmex KX-21N. Cells were diluted in DMEM containing 10% Hyclone, 2 mM L-Glutamate and 1% Pen/Strep at 140 cells/μl and transduced with 10% PRb-BacMam and 10% MMTV-BacMam. […] of suspension cells were dispensed to each well of white Nunc 384-well plates, containing compounds at the required concentration. After 24 h 10 μl of Steadylite were added to each well of the plates. Plates were incubated in the dark for 10 min before reading them on a Viewlux reader. Dose response curves were constructed from which pEC50 values were estimated.

`Nc1c(C(=O)NCC(O)(CN(CCF)C(=O)c2c(F)cccc2Cl)C(F)(F)F)cnn1-c1ccc(F)cc1` (racemic) [Example 29 (racemic), 5-amino-N-(2-{[[(2-chloro-6-fluorophenyl)carbonyl](2-fluoroethyl)amino]methyl}-3,3,3-trifluoro-2-hydroxypropyl)-1-(4-fluorophenyl)-1H-pyrazole-4-carboxamide]: the Emax in experiment [1] and in experiment [2] was over 85% throughout. In addition, the IC50 in experiment [1] was under 1000 nM; in experiment [3], at most 316 nM.

Turning to `CCN(CC(O)(CNC(=O)c1cnn(-c2ccccc2Cl)c1N)C(F)(F)F)C(=O)c1c(F)cccc1F` (racemic) [Example 40 (racemic), 5-amino-1-(2-chlorophenyl)-N-(2-{[[(2,6-difluorophenyl)carbonyl](ethyl)amino]methyl}-3,3,3-trifluoro-2-hydroxypropyl)-1H-pyrazole-4-carboxamide], the Emax in experiment [1] and in experiment [2] was over 85% throughout. Besides, the IC50 is under 1000 nM in experiment [1] and at most 316 nM in experiment [3].

Turning to `Nc1c(C(=O)NCC(O)(CNC(=O)c2c(Cl)cccc2C(F)(F)F)C(F)(F)F)cnn1-c1ccc(F)cc1` (racemic) [Example 44 (racemic), 5-Amino-N-{2-[({[2-chloro-6-(trifluoromethyl)phenyl]carbonyl}amino)methyl]-3,3,3-trifluoro-2-hydroxypropyl}-1-(4-fluorophenyl)-1H-pyrazole-4-carboxamide], the figures for the Emax in experiment [1] and in experiment [2] were at least 20% and 20 to 85%, respectively. Also, the IC50 in experiment [1] is under 1000 nM; in experiment [3] it was at most 316 nM.

As for `Nc1c(C(=O)NCC(O)(CNC(=O)c2c(F)cccc2Cl)C(F)(F)F)cnn1-c1ccc(F)cc1` (single isomer, unassigned) [Example 7 Enantiomer 2, 5-Amino-N-[2-({[(2-chloro-6-fluorophenyl)carbonyl]amino}methyl)-3,3,3-trifluoro-2-hydroxypropyl]-1-(4-fluorophenyl)-1H-pyrazole-4-carboxamide], the Emax in experiment [1] is at least 20%; in experiment [2], 20 to 85%.

As to `Nc1c(C(=O)NCC(O)(CNC(=O)c2c(C(F)(F)F)cccc2C(F)(F)F)C(F)(F)F)cnn1-c1ccc(F)cc1` (single isomer, unassigned) [Example 15 Enantiomer 1, 5-amino-N-{2-[({[2,6-bis(trifluoromethyl)phenyl]carbonyl}amino)methyl]-3,3,3-trifluoro-2-hydroxypropyl}-1-(4-fluorophenyl)-1H-pyrazole-4-carboxamide], the values for the Emax in experiment [1] and in experiment [2] were at least 20% and 20 to 85%, respectively. The EC50 in experiment [4] is over 1000 nM. In addition, the IC50 in experiment [3] is at most 316 nM.

On to `Nc1c(C(=O)NCC(O)(CNC(=O)c2c(F)cccc2C(F)(F)F)C(F)(F)F)cnn1-c1ccc(F)cc1` (single isomer, unassigned) [Example 19 Enantiomer 1, 5-amino-1-(4-fluorophenyl)-N-{3,3,3-trifluoro-2-[({[2-fluoro-6-(trifluoromethyl)phenyl]carbonyl}amino)methyl]-2-hydroxypropyl}-1H-pyrazole-4-carboxamide], for which the Emax is at least 20% in experiment [1] and 20 to 85% in experiment [2]. The IC50 in experiment [1] was under 1000 nM; in experiment [3], at most 316 nM.
